Our source for the IC50 and Ki values is US8927500B2, “Peptidomimetic macrocycles” (Aileron Therapeutics, Inc., priority 2012, dated 2015).

One assay concerns the target T1, MDMX (Homo sapiens, UniProt O15151).
T1 sequence (O15151 1-125): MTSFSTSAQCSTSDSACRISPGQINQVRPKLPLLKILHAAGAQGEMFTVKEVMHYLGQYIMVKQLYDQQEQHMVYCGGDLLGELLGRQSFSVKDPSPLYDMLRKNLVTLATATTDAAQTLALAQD
As to the kind of experiment: Competitive fluorescence polarization assay for MDMX. The assay is classed as binding. The conditions noted are these: competitive FP assay; for IC50: read-out: IC50 (MDMX); for Ki: read-out: Ki (MDMX). For orientation: In fluorescence polarisation assays a small probe gives low polarisation when free and higher when bound to something large.

A further assay has as its target MDM2 (Homo sapiens, UniProt Q00987). Nature of the assay: Competitive fluorescence polarization assay for MDM2. The assay is classed as binding. Particulars: competitive FP assay, MDM2; for IC50: read-out: IC50 (MDM2); for Ki: read-out: Ki (MDM2).

Each structure is given as a SMILES string. Where a SMILES comes first, the peptide text is derived from it. Bridges are numbered along the chain shown (N, C = ends). [ ]: non-standard residue; d: D form. R8 = C=CCCCCCC[C@@](C)(N)C(=O)O; hLeu = CC(C)CC[C@H](N)C(=O)O; S5 = C=CCCC[C@](C)(N)C(=O)O; Nle = CCCC[C@H](N)C(=O)O

Sequence of MDM2 (Q00987 1-125): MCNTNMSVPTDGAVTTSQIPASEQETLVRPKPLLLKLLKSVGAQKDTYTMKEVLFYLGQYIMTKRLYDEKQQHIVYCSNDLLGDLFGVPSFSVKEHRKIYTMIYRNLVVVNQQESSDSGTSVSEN

Consider `CCCC[C@H](NC(=O)[C@H](C)NC(=O)[C@H](C)NC(=O)[C@]1(C)CCCC=CCCCCCC[C@@](C)(NC(=O)[C@H](Cc2ccccc2)NC(=O)[C@@H](NC(=O)[C@H](CC(C)C)NC(C)=O)[C@@H](C)O)C(=O)N[C@@H](CCC(=O)O)C(=O)N[C@@H](Cc2ccc(O)cc2)C(=O)N[C@@H](Cc2c[nH]c3ccccc23)C(=O)N[C@@H](C)C(=O)N[C@@H](CCC(N)=O)C(=O)N[C@@H](CCC(C)C)C(=O)N1)C(=O)N[C@@H](C)C(=O)N[C@@H](C)C(N)=O` [compound 381] (Ac-LTF[R8]EYWAQ[hLeu][S5]AA[Nle]AA-NH2; staple 4-11), for which the IC50 on MDMX and at MDM2 was 10 to 100 nM each time. The Ki – broadly, a measure of affinity in units of concentration, obtained from inhibition or displacement – on MDMX is 10 to 100 nM; on MDM2, less than 10 nM.
Regarding `CCCC[C@H](NC(=O)[C@H](C)NC(=O)[C@H](C)NC(=O)[C@]1(C)CCCC=CCCCCCC[C@@](C)(NC(=O)[C@H](Cc2ccccc2)NC(=O)[C@@H](NC(=O)[C@H](CC(C)C)NC(=O)[C@H](C)NC(C)=O)[C@@H](C)O)C(=O)N[C@@H](CCC(=O)O)C(=O)N[C@@H](Cc2ccc(O)cc2)C(=O)N[C@@H](Cc2c[nH]c3ccccc23)C(=O)N[C@@H](C)C(=O)N[C@@H](CCC(N)=O)C(=O)N[C@@H](CCC(C)C)C(=O)N1)C(=O)N[C@@H](C)C(=O)N[C@@H](C)C(N)=O` [compound 382] (Ac-ALTF[R8]EYWAQ[hLeu][S5]AA[Nle]AA-NH2; staple 5-12), at MDMX, the IC50 (in general, the concentration that inhibits the measured activity by half) lay within 10 to 100 nM and the Ki is less than 10 nM. At MDM2, the concentration for half-maximal inhibition (IC50) was in the range of 10 to 100 nM and the Ki was less than 10 nM.
For the compound `CCCC[C@H](NC(=O)[C@H](C)NC(=O)[C@H](C)NC(=O)[C@]1(C)CCC/C=C/CCCCCC[C@@](C)(NC(=O)[C@H](Cc2ccccc2)NC(=O)[C@@H](NC(=O)[C@H](CC(C)C)NC(C)=O)[C@@H](C)O)C(=O)N[C@@H](C)C(=O)N[C@@H](Cc2ccc(O)cc2)C(=O)N[C@@](C)(Cc2c[nH]c3ccccc23)C(=O)N[C@@H](C)C(=O)N[C@@H](CCC(N)=O)C(=O)N[C@@H](CC(C)C)C(=O)N1)C(=O)N[C@@H](C)C(N)=O` [compound 388], on MDMX, the IC50 was 10 to 100 nM and the Ki was less than 10 nM. Further, on MDM2, the IC50 was 100 to 1000 nM and the Ki fell in the range of 10 to 100 nM.
Regarding `C=CCCCCCC[C@@](C)(NC(=O)[C@H](Cc1ccccc1)NC(=O)[C@@H](NC(=O)[C@H](CC(C)C)NC(C)=O)[C@@H](C)O)C(=O)N[C@@H](C)C(=O)N[C@@H](Cc1ccc(O)cc1)C(=O)N[C@@H](Cc1c[nH]c2ccccc12)C(=O)N[C@@H](C)C(=O)N[C@@H](CCC(N)=O)C(=O)N[C@@H](CC(C)C)C(=O)N[C@@](C)(CCCC=C)C(=O)N[C@@H](C)C(=O)N[C@@H](C)C(=O)N[C@@H](CCCC)C(=O)N[C@@H](C)C(N)=O` [compound 411], on MDMX, the IC50 was more than 1000 nM and the inhibition constant (Ki) was more than 1000 nM. Also, at MDM2, the half-inhibitory concentration (IC50) fell in the range of 100 to 1000 nM and the inhibitory constant (Ki) fell in the range of 100 to 1000 nM.
As to `CCCC[C@H](NC(=O)[C@H](C)NC(=O)[C@H](C)NC(=O)C(C)(C)NC(=O)[C@H](CC(C)C)NC(=O)[C@H](CCC(N)=O)NC(=O)[C@H](C)NC(=O)[C@H](Cc1c[nH]c2ccccc12)NC(=O)[C@H](Cc1ccc(O)cc1)NC(=O)[C@H](C)NC(=O)C(C)(C)NC(=O)[C@H](Cc1ccccc1)NC(=O)[C@@H](NC(=O)[C@H](CC(C)C)NC(C)=O)[C@@H](C)O)C(=O)N[C@@H](C)C(N)=O` [compound 412], the values for the 50% inhibitory concentration (IC50) at MDMX and on MDM2 were 10 to 100 nM and less than 10 nM, respectively. Besides, the Ki on MDMX and on MDM2 was less than 10 nM each time.
As for `CC(=O)N[C@@H](CC(C)C)C(=O)N[C@H](C(=O)N[C@@H](Cc1ccccc1)C(=O)N[C@]1(C)CCCCCCCCCCC[C@@](C)(C(=O)N[C@@H](CO)C(=O)N[C@@H](C)C(=O)N[C@@H](C)C(N)=O)NC(=O)[C@H](CC2CCC2)NC(=O)[C@H](CCC(N)=O)NC(=O)[C@H](C)NC(=O)[C@H](Cc2c[nH]c3ccccc23)NC(=O)[C@H](Cc2ccc(O)cc2)NC(=O)[C@H](CCC(=O)O)NC1=O)[C@@H](C)O` [compound 434], on MDMX, the IC50 is 10 to 100 nM and the Ki lay in the range of 10 to 100 nM. Moreover, at MDM2, the IC50 lay within 10 to 100 nM and the Ki was less than 10 nM.
